The conditions of this data set: for mass density: 298.15 K, 101.33 kPa, Liquid, Pycnometric method; for Glass transition temperature / Normal melting temperature: DTA; for Normal melting temperature: Crystal.

± gives the expanded uncertainty stated by the source.

By mass density is commonly meant the mass of a sample divided by its volume.

Take `CCCCCCCCn1cc[n+](C)c1.O=S(=O)([N-]S(=O)(=O)C(F)(F)F)C(F)(F)F`: the mass density turned out to be 1310 ± 20 kg/m3 and the Glass transition temperature is -86.00 ± 2 °C.

As for `CCCC[n+]1ccc(C)cc1.O=S(=O)([N-]S(=O)(=O)C(F)(F)F)C(F)(F)F`, the mass density is 1350 ± 20 kg/m3, the Normal melting temperature is 10.00 ± 2 °C and the Glass transition temperature is -80.00 ± 2 °C.

In the case of `CCCC[n+]1ccc(C)cc1.O=S(=O)([O-])C(F)(F)C(F)(F)C(F)(F)C(F)(F)F`, the Normal melting temperature is 70.00 ± 2 °C and the Glass transition temperature was -34.00 ± 2 °C.

For the compound `CCCC[n+]1ccn(C)c1.O=S(=O)([N-]S(=O)(=O)C(F)(F)F)C(F)(F)F`, the Normal melting temperature was -4.00 ± 2 °C.

Take `CCCCn1cc[n+](C)c1.O=S(=O)([O-])C(F)(F)F` [1-butyl-3-methylimidazolium trifluoromethanesulfonate]: the Normal melting temperature stood at 15.00 ± 2 °C.

As to `CCCC[n+]1ccc(C)cc1.O=S(=O)([O-])C(F)(F)F` [1-butyl-4-methylpyridinium trifluoromethanesulfonate], the mass density is 1170 ± 20 kg/m3, the Normal melting temperature came to 38.00 ± 2 °C and the Glass transition temperature was -68.00 ± 2 °C.

Consider `CCCCCCCCn1cc[n+](C)c1.O=S(=O)([O-])C(F)(F)C(F)(F)C(F)(F)C(F)(F)F` [1-methyl-3-octylimidazolium perfluorobutanesulfonate], for which the mass density is given as 1330 ± 20 kg/m3, the Normal melting temperature is 32.00 ± 2 °C and the Glass transition temperature was -86.00 ± 2 °C.

As for `CCCCCCCCn1cc[n+](C)c1.O=S(=O)([O-])C(F)(F)F` [1-octyl-3-methylimidazolium trifluoromethanesulfonate], the mass density was determined as 1120 ± 20 kg/m3, the Normal melting temperature worked out at 5.00 ± 2 °C and the Glass transition temperature is -80.00 ± 2 °C.

For `CCCCCCCCn1cc[n+](C)c1.N#C[N-]C#N` [3-methyl-1-octylimidazolium dicyanamide], the mass density is listed as 1000 ± 20 kg/m3, the Normal melting temperature is -5.00 ± 2 °C and the Glass transition temperature was -89.00 ± 2 °C.

Values taken from the NIST ThermoML archive (doi:10.1021/je060096y).
